Source: the supplement of paper PMC13386468

Legend:
Assay in all cases: IC50 for competition of protein binding to Kinobeads
Conditions in all cases: assay detail: Kinobeads competition in P. falciparum blood-stage lysate
UniProt Q8I298 = target: UniProt Q8I298
UniProt Q8IIW5 = target: UniProt Q8IIW5
UniProt Q8IAX8 = target: UniProt Q8IAX8
UniProt Q8ILR7 = target: UniProt Q8ILR7
UniProt Q8IE99 = target: UniProt Q8IE99
UniProt Q8IKW5 = target: UniProt Q8IKW5
UniProt Q8I492 = target: UniProt Q8I492
UniProt O97247 = target: UniProt O97247
UniProt Q8I3N3 = target: UniProt Q8I3N3
UniProt Q8I1X5 = target: UniProt Q8I1X5
UniProt Q8I5H7 = target: UniProt Q8I5H7
UniProt Q8IDG9 = target: UniProt Q8IDG9
UniProt Q8I272 = target: UniProt Q8I272
UniProt Q8IDK7 = target: UniProt Q8IDK7
UniProt Q8IIL7 = target: UniProt Q8IIL7
UniProt Q8I526 = target: UniProt Q8I526
UniProt A0A144A2H0 = target: UniProt A0A144A2H0
UniProt Q8IDB7 = target: UniProt Q8IDB7
UniProt Q8I3F1 = target: UniProt Q8I3F1
UniProt Q8IIW6 = target: UniProt Q8IIW6
UniProt C0H5I7 = target: UniProt C0H5I7
UniProt Q8IDF0 = target: UniProt Q8IDF0
UniProt Q8IJZ7 = target: UniProt Q8IJZ7
UniProt Q8IEM3 = target: UniProt Q8IEM3
UniProt Q8ILZ3 = target: UniProt Q8ILZ3
UniProt Q8IEN3 = target: UniProt Q8IEN3
UniProt O77358 = target: UniProt O77358
UniProt C0H4C5 = target: UniProt C0H4C5
UniProt Q8I463 = target: UniProt Q8I463
UniProt O96210 = target: UniProt O96210
Q8IEK1 = Q8IEK1 (UniProt O96935)
UniProt Q8II24 = target: UniProt Q8II24
UniProt Q6LFH8 = target: UniProt Q6LFH8
UniProt O97282 = target: UniProt O97282
UniProt O96236 = target: UniProt O96236
UniProt Q8I3J0 = target: UniProt Q8I3J0
UniProt Q8I5Y9 = target: UniProt Q8I5Y9
UniProt P62344 = target: UniProt P62344
UniProt Q7KQK3 = target: UniProt Q7KQK3
UniProt Q7K6A8 = target: UniProt Q7K6A8
UniProt Q8I2X3 = target: UniProt Q8I2X3
UniProt Q8I574 = target: UniProt Q8I574
UniProt Q8I468 = target: UniProt Q8I468
UniProt C0H5J2 = target: UniProt C0H5J2
UniProt Q8ILY9 = target: UniProt Q8ILY9
UniProt Q8I6T2 = target: UniProt Q8I6T2
UniProt Q8IJW3 = target: UniProt Q8IJW3
UniProt Q8I231 = target: UniProt Q8I231
UniProt Q8IIJ4 = target: UniProt Q8IIJ4
UniProt Q8IBZ2 = target: UniProt Q8IBZ2
UniProt O15770 = target: UniProt O15770

Measured: IC50
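Further: native unpurified kinases from lysate captured on beads bearing immobilized kinase inhibitors, with bead-bound kinases quantified by mass spectrometry across compound doses.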

UniProt Q8IAX8, sequence (Q8IAX8 whole entry): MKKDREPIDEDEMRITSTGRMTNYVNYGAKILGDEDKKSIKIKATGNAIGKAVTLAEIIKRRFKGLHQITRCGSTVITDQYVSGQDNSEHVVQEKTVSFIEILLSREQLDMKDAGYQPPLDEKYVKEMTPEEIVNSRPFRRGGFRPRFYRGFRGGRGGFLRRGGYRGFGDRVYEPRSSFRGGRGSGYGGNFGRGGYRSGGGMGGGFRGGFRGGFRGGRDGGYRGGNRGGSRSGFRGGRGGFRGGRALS
UniProt O15770, sequence (O15770 whole entry): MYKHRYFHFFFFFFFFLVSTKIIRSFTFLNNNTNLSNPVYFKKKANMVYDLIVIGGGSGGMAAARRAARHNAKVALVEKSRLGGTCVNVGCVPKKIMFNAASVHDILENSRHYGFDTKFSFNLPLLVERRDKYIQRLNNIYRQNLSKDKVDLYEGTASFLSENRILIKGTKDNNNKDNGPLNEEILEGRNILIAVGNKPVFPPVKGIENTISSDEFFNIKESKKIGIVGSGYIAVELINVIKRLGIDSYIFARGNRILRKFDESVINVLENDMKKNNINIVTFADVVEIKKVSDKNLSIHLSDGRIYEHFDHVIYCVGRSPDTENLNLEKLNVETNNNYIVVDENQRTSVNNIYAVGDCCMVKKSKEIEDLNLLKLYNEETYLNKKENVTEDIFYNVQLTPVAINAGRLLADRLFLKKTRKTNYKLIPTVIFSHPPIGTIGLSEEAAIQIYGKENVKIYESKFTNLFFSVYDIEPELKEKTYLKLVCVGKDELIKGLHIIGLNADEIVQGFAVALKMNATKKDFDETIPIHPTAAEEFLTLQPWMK
UniProt P62344, sequence (P62344 whole entry, looked up): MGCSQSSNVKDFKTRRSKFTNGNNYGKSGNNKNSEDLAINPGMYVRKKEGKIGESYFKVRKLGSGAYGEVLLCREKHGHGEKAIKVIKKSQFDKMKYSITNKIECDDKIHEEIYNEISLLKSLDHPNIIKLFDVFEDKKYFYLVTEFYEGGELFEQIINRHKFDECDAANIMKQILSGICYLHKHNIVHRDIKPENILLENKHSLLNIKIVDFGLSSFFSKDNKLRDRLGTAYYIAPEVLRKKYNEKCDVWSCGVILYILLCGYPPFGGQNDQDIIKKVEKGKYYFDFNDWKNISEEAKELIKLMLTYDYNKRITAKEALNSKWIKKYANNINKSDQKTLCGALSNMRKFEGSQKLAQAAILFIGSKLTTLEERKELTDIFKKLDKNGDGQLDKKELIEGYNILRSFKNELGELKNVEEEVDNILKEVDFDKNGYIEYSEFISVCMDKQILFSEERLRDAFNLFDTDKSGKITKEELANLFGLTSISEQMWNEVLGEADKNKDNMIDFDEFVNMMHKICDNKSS
UniProt A0A144A2H0, sequence (A0A144A2H0 whole entry): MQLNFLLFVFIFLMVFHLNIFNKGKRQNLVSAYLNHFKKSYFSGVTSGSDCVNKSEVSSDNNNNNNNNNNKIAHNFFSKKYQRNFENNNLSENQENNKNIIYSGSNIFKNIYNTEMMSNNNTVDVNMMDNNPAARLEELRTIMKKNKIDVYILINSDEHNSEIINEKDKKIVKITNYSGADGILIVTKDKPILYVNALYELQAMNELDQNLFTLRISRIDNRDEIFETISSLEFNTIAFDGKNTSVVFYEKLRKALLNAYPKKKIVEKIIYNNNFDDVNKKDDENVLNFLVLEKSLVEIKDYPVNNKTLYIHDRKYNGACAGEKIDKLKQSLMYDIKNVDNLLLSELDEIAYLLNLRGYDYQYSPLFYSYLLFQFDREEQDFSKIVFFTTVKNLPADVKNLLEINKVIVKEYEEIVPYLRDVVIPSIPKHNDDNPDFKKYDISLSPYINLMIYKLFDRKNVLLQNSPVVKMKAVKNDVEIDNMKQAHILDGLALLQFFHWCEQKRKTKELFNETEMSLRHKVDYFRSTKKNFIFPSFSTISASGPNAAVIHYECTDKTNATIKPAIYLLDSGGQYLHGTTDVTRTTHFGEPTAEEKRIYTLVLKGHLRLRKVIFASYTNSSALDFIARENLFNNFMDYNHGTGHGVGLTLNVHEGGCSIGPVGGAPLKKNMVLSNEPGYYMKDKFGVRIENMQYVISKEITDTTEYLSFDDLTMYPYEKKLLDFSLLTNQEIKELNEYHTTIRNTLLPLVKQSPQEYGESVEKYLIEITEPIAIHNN
Q8IEK1, sequence (O96935 whole entry, one chain of several): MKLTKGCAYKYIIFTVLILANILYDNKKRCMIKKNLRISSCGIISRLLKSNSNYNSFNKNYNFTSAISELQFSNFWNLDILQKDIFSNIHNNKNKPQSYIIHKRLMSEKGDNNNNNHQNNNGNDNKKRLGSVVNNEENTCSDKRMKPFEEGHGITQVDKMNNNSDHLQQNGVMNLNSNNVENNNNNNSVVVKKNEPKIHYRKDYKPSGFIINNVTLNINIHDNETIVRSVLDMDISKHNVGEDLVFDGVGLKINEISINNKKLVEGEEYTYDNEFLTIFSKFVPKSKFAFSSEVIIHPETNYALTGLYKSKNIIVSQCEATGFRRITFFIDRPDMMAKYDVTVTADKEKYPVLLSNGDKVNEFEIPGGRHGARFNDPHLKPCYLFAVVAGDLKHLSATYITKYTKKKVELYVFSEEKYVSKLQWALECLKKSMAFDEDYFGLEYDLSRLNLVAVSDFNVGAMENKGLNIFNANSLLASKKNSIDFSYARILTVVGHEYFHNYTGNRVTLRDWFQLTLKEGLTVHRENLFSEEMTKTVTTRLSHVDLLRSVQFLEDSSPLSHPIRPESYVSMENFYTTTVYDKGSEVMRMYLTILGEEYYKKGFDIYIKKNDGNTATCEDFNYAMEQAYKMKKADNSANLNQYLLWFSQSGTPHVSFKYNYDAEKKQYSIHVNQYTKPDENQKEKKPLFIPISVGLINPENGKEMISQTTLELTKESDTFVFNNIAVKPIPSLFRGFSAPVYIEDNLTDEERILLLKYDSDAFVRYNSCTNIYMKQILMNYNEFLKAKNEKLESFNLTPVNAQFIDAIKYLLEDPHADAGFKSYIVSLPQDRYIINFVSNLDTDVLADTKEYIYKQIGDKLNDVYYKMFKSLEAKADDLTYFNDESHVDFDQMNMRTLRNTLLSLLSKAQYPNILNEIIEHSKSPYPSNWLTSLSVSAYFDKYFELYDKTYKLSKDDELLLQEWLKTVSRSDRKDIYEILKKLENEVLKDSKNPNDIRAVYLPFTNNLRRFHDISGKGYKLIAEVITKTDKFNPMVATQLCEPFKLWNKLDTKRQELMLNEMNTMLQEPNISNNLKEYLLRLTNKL
UniProt Q8I2X3, sequence (Q8I2X3 whole entry): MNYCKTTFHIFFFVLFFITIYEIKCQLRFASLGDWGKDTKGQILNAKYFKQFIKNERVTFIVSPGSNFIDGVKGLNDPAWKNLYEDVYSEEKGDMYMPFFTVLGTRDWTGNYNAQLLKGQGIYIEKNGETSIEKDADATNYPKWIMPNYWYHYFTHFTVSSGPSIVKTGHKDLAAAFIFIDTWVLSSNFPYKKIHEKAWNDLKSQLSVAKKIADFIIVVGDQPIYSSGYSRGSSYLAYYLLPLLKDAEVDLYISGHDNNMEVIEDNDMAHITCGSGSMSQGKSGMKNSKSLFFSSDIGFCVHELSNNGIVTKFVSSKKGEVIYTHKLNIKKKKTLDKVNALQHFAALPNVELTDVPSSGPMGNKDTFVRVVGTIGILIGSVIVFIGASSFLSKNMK
UniProt Q6LFH8, sequence (Q6LFH8 whole entry): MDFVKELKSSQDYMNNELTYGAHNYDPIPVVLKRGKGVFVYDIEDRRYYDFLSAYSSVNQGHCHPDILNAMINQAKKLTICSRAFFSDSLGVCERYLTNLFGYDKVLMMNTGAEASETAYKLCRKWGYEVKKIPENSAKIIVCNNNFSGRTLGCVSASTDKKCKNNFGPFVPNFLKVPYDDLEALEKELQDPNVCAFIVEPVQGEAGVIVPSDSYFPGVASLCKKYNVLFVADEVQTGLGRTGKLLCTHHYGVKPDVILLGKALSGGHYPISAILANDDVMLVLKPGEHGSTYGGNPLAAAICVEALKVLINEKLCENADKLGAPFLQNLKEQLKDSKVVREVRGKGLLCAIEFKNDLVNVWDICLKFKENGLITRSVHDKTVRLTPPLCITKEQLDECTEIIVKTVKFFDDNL

O=c1[nH]c2ccc(Cl)cc2c(NC2CN3CCC2CC3)c1-c1nc2ccccc2[nH]1 (stereo unspecified) [CHIR-124]
0.25 µM: UniProt Q8IIW6
< 0.0823 µM: UniProt P62344
> 20 µM: all other assays above
